Assay results reported in patent publication US9060970B2, “Bridge-helix cap: target and method for inhibition of bacterial RNA polymerase” (priority 2011, dated 2015).
“Also recorded” adds a separate entry of the source. Starred links: 1 amine or outer side, 2 acyl side, 3 side chain; linkers in the order of their positions; H or OH if unused. Positions of bridges follow the written chain, without caps; N, C: chain ends. Non-standard residues stand in square brackets, D forms with d. Residues, ends and D or L forms follow the SMILES beside them. *: point of attachment. X2 = C[C@H](Oc1ccc([C@H](N[*:1])C(=O)[*:2])cc1)[C@@]1(/C=C/C(=O)[*:3])CO1; X1 = CC(C)[C@H](O)[C@H](C)C(=O)*; aIle = CC[C@@H](C)[C@H](N)C(=O)O; dNMeF = CN[C@H](Cc1ccccc1)C(=O)O; aThr = C[C@H](O)[C@H](N)C(=O)O

Tests used:
[1] = tested on: S. pyogenes; settings: references 1, 2; cited from earlier work
[2] = target: bacterial RNA polymerase (RNAP) (Escherichia coli, UniProt P0A8T7+P0A8V2); settings: in vitro; reference 4; read-out: IC50, inhibition of bacterial RNA polymerase in vitro; cited from earlier work
[3] = tested on: Derivatives of E. coli D21f2tolC containing rifamycin-resistant rpoB mutations; experiment: Broth microdilution cross-resistance of rifamycin-resistant mutants to Sal; assay type: cell-based, Escherichia coli
[4] = tested on: DNA synthesis in E. coli D21f2tolC; experiment: DNA synthesis in vivo ([14C]-thymidine incorporation, macromolecular synthesis assay); assay type: cell-based, Escherichia coli; settings: Sal at two times MIC; 5, 10, 15 min after addition
Protocol: (§1) Sal Inhibits RNA Synthesis in vivo. To determine whether Sal inhibits RNAP in vivo, effects of Sal on RNA synthesis in vivo were assayed, and, as a control, effects of Sal on DNA synthesis in vivo were assayed. Sal was added to cultures of E. coli D21f2tolC growing in media containing either a radioactively labeled RNA-synthesis precursor ([^14C]-uracil) or a radioactively labeled DNA synthesis precursor ([^14C]-thymidine); aliquots were removed and mixed with trichloroacetic acid (TCA) 0, 5, 10, and 15 min thereafter to lyse cells and precipitate nucleic acids; TCA-precipitated nucleic acids were collected by vacuum filtration; and radioactivity in TCA-precipitated nucleic acids was quantified (FIG. 2A). […] The effect was specific; addition of Sal to bacterial cultures had no effect on DNA synthesis (FIG. 2B, right panel). It is concluded that Sal inhibits RNA synthesis in vivo, and it is inferred that Sal inhibits RNAP in vivo.
(§2) Measurement of Nucleic Acid Synthesis in vivo. Macromolecular synthesis assays were performed essentially as in reference 5. […] Radioactivity was quantified using a Typhoon Variable Mode Imager and ImageQuant v5 (Molecular Dynamics, Inc.).

[5] = tested on: RNA synthesis in E. coli D21f2tolC; experiment: RNA synthesis in vivo ([14C]-uracil incorporation, macromolecular synthesis assay); assay type: cell-based, Escherichia coli; settings: Sal at two times MIC; 5, 10, 15 min after addition; effect seen at earliest time point (5 min)
Protocol: as §1, §2

[6] = tested on: Streptococcus pneumoniae; settings: references 1, 2; cited from earlier work
[7] = tested on: human RNAPs; settings: human RNAP I, RNAP II, RNAP III; reference 4; cited from earlier work
[8] = tested on: E. coli D21f2tolC; experiment: Spontaneous resistance frequency by plating on LB agar containing inhibitor; assay type: cell-based, Escherichia coli
Source text: Sal-Resistant Mutants Map to RNAP-Subunit Genes. To determine whether Sal kills bacteria by inhibiting RNAP, spontaneous Sal-resistant mutants were isolated, and genes for RNAP subunits in Sal-resistant mutants were PCR-amplified and sequenced (FIG. 3A). Spontaneous Sal-resistant mutants were isolated by plating high-density cultures of E. coli D21f2tolC (˜3×10^9 cells per plate) on agar containing Sal and identifying rare resistant colonies (FIG. 3B). For each Sal-resistant mutant, genomic DNA was prepared, and the genes for the largest RNAP subunit and the second-largest RNAP subunit—rpoC encoding RNAP β′ subunit and rpoB encoding RNAP β subunit were PCR-amplified and sequenced (FIG. 3C).
Co-Administration of Sal and Rifampin Reduces Spontaneous Resistance to Undetectable Levels.
Co-Administration of Sal and CBR703 Reduces Spontaneous Resistance to Undetectable Levels.
Isolation of Sal-Resistant Mutants: Spontaneous Sal-Resistant Mutants. E. coli D21f2tolC (6) was cultured to saturation in 5 ml LB broth (7) at 37° C., cultures were centrifuged, and cell pellets (˜3×10^9 cells) were re-suspended in 50 μl LB broth and plated on LB agar (7) containing 1.2 μg/ml Sal (a concentration four times the minimal concentration required to prevent growth of wild-type cells under these conditions), and incubated 24-48 h at 37° C. Sal-resistant mutants were identified by the ability to form colonies on this medium and were confirmed by re-streaking on the same medium.

Sequence of bacterial RNA polymerase (RNAP) (P0A8V2 whole entry): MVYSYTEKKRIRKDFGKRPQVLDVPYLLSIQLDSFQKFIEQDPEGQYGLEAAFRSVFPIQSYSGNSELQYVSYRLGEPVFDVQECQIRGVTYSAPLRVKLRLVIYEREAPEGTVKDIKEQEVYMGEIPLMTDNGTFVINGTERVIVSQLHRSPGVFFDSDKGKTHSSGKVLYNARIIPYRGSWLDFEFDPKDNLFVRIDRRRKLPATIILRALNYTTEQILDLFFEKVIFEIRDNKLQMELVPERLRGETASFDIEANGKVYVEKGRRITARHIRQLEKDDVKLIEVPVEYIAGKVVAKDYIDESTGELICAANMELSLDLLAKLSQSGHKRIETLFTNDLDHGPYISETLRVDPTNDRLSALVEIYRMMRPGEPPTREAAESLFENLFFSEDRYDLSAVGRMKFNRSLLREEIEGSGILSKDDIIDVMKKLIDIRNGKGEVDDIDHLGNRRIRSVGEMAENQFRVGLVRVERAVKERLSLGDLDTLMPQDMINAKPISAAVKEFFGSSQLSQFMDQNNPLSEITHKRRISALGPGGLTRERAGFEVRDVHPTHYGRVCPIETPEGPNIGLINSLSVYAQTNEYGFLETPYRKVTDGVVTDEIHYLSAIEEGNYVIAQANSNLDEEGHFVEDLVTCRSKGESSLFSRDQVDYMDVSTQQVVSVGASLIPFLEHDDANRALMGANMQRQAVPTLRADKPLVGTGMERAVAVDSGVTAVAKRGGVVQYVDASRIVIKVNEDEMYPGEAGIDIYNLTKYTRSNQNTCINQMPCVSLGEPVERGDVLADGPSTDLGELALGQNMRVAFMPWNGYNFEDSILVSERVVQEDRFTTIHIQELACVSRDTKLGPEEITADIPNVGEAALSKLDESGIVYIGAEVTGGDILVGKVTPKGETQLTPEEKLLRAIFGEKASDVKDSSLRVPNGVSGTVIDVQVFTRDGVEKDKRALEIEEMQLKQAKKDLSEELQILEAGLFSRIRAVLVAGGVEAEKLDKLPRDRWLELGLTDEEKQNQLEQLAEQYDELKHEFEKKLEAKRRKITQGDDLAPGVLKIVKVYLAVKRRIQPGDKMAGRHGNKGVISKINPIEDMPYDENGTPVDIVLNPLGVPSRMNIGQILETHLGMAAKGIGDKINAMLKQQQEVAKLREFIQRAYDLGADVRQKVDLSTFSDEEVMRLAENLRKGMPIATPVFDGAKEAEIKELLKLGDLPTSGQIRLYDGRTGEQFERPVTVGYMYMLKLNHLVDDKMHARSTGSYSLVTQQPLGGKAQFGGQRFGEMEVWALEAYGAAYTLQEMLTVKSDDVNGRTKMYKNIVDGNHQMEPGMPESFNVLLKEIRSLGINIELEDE
Sequence of bacterial RNA polymerase (RNAP) (P0A8T7 whole entry): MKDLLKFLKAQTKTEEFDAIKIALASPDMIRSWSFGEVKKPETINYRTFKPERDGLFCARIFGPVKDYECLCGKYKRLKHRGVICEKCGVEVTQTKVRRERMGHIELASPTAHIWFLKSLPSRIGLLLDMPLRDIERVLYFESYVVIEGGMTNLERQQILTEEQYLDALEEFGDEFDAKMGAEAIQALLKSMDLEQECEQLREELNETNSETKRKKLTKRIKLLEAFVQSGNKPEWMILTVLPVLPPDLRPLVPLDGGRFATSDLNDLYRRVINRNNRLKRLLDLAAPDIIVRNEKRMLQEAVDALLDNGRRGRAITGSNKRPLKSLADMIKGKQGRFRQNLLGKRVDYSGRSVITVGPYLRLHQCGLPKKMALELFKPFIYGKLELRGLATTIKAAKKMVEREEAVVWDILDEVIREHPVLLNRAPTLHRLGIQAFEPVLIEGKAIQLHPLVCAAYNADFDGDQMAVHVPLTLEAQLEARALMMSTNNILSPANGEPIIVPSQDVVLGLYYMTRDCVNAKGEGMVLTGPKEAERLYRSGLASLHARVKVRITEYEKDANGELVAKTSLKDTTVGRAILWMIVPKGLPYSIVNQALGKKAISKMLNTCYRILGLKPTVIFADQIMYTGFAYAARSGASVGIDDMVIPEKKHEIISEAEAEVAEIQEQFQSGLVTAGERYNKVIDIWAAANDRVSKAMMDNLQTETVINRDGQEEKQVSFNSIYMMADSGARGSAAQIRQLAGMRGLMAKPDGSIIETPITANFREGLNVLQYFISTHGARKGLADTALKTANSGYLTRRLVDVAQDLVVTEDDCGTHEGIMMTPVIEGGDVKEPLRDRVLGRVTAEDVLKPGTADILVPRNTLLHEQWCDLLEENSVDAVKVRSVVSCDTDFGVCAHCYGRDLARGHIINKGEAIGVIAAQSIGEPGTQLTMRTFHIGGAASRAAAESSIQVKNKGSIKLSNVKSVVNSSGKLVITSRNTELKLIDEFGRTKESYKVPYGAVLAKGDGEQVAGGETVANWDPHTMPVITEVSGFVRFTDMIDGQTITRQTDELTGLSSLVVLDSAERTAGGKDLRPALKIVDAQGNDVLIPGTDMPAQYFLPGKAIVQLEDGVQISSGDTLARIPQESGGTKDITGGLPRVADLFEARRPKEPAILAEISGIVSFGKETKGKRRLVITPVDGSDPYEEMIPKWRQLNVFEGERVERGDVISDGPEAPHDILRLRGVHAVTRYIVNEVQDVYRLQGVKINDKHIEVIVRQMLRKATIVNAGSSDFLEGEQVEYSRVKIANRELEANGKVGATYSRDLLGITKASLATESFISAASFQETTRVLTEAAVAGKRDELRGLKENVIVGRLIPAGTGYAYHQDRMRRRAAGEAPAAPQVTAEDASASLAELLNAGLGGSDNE
Sequence of bacterial RNA polymerase (RNAP) (P0A7Z4 whole entry, further chain): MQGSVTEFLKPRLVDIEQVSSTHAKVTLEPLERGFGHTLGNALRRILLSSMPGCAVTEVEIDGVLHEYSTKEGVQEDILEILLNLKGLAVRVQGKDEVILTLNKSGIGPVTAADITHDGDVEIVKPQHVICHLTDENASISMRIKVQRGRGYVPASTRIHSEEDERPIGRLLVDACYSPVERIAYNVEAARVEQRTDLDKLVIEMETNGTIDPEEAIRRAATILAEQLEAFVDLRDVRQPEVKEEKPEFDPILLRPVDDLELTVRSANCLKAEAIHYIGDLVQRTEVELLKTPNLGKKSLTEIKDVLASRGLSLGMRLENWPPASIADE

CC[C@@H](C)[C@@H]1NC(=O)[C@H](NC(=O)[C@@H](C)[C@@H](O)C(C)C)[C@H](C)OC(=O)[C@H]2COC(=O)CNC(=O)/C=C/[C@@]3(CO3)[C@H](C)Oc3ccc(cc3)[C@H](NC1=O)C(=O)N(C)[C@H](Cc1ccccc1)C(=O)N[C@@H]([C@H](C)O)C(=O)N2 [Sal, salinamide A] (X1-[dT][aIle][X2][dNMeF][aThr][dS]; ester 1-C; linker 3-6 via G)
antibacterial activity [1]: exhibits antibacterial activity
IC50 [2]: 500 nM
cross-resistance level (MIC/MICwild-type) ([3]; rifampin-resistant mutant rpoB (RNAP β subunit) 516 Asp→Val): 1
cross-resistance level (MIC/MICwild-type) ([3]; rifampin-resistant mutant rpoB (RNAP β subunit) 526 His→Asp): 1
cross-resistance level (MIC/MICwild-type) ([3]; rifampin-resistant mutant rpoB (RNAP β subunit) 526 His→Tyr): 1
cross-resistance level (MIC/MICwild-type) ([3]; rifampin-resistant mutant rpoB (RNAP β subunit) 531 Ser→Leu): 1
cross-resistance of rifamycin-resistant mutants (in words) ([3]; β Asp516→Val, His526→Asp, His526→Tyr, Ser531→Leu mutants (Table 5)): not cross-resistant; also recorded: no cross-resistance
effect on DNA synthesis in vivo [4]: no effect
effect on RNA synthesis in vivo [5]: decreased immediately; also recorded: essentially stopped
antibacterial activity [6]: exhibits antibacterial activity
inhibition of human RNAPs [7]: does not inhibit
spontaneous resistance frequency ([8]; LB agar, each compound at 4×MIC, colonies counted after 24 h at 37° C.): 4×10^−9
frequency of spontaneous mutation to Sal-resistance ([8]; ~3×10^9 cells per plate, LB agar with 1.2 μg/ml Sal, 24-48 h at 37° C.): ~4 × 10^−9
